Columns and labels:
[1] = Pain score (0-10) in herpes zoster patients treated with valacyclovir; assay type: in vivo, human; details: oral valacyclovir 1 g 3 times daily for 7 days, 50 patients with follow-up
Protocol: Methods. All human-study protocols were approved by the Committee for the Protection of Human Subjects of the Lyndon B. Johnson Space Center (control subjects) and by the Institutional Review Board of the University of Texas Health Sciences Center (patients with herpes zoster). Informed consent was obtained from all subjects. The 54 patients with herpes zoster consisted of 29 women (21-82 years old) and 25 men (35-79 years old) (Table 2). All patients with herpes zoster were treated with oral valacyclovir (1 g 3 times daily) for 7 consecutive days. Pain was described by all patients on a scale of 0 (no pain) to 10 (worst pain) (Jacox et al., 1994). Six control subjects consisted of 5 women (24-64 years old) and 1 person with chronic pain due to malignancy or non-VZV inflammatory disease. Fourteen additional healthy control subjects consisted of 9 men and 5 women (34-70 years old). Three saliva samples were collected at weekly intervals from all 6 control subjects with chronic pain and from the 14 healthy control subjects.

[2] = system: varicella-zoster virus (VZV) DNA in saliva; test: Salivary VZV DNA by real-time PCR in herpes zoster patients treated with valacyclovir; assay type: in vivo, human; details: oral valacyclovir 1 g 3 times daily for 7 days, 50 patients with follow-up
Protocol: Methods. All human-study protocols were approved by the Committee for the Protection of Human Subjects of the Lyndon B. Johnson Space Center (control subjects) and by the Institutional Review Board of the University of Texas Health Sciences Center (patients with herpes zoster). Informed consent was obtained from all subjects. The 54 patients with herpes zoster consisted of 29 women (21-82 years old) and 25 men (35-79 years old) (Table 2). All patients with herpes zoster were treated with oral valacyclovir (1 g 3 times daily) for 7 consecutive days. Pain was described by all patients on a scale of 0 (no pain) to 10 (worst pain) (Jacox et al., 1994). […]
Saliva samples from all subjects were obtained by having subjects suck on a cotton plug for 1-2 min, after which the saturated cotton was placed in a salivette tube (Sarstedt). […] Quantitative real-time polymerase chain reaction (PCR) was performed in a TaqMan 7700 sequence detector (Applied Biosystems) using fluorescence-based simultaneous amplification and product detection.
Primers and probes specific for VZV, herpes simplex virus (HSV)-1 and GAPDH DNA sequences have been described elsewhere (Mehta et al., 2004; Cohrs et al., 2000). […] At the height of CPE, cells were analyzed by PCR with HSV-1-specific and VZV-specific primers (Mehta et al., 2004; Cohrs et al., 2000) and by immunohistochemistry for viral antigens.

CMV = details: cited from earlier work
VZV = details: requires VZV thymidine kinase for phosphorylation; cited from earlier work
HSV = details: cited from earlier work

Row | Structure (SMILES) | patients in whom pain decreased ([1]; 14-day study period) | patients in whom pain disappeared ([1]; end of 2-week study period) | patients in whom VZV DNA disappeared from saliva ([2]; 2-week study period) | patients in whom virus DNA copy numbers decreased in saliva ([2]; 14-day study period) | activity against CMV (CMV) | activity against VZV (VZV) | activity against HSV (HSV)
1 | CC(C)[C@H](N)C(=O)OCCOCn1cnc2c(=O)[nH]c(N)nc21 [valacyclovir] | 86% | 74% | 82% | 94% |  |  | 
2 | CC#Cc1cn([C@@H]2O[C@H](CO)[C@@H](O)[C@@H]2O)c(=O)[nH]c1=O [882C] |  |  |  |  | without any significant activity | specific activity against VZV | without any significant activity

Reference: patent publication US20110262895A1, “METHODS FOR THE DIAGNOSIS OF VARICELLA ZOSTER VIRUS INFECTION” (priority 2008, published 2011)
